# Experiments:
# Assay type in all cases: in vivo
# [1] = test system: Surinam grass (Brachiaria decumbens); assay: Test B postemergence; details: 13 to 15 days
# In short: (§1)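 Preemergence: seeds planted and treated with test chemicals in non-phytotoxic solvent with surfactant; postemergence on plants 2–18 cm (1- to 4-leaf stage). Kept in greenhouse 13–15 days, then visually rated against controls on a 0 (no effect) to 100 (complete control) scale.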
# [2] = test system: barnyardgrass (Echinochloa crus-galli); assay: Test B postemergence; details: 13 to 15 days
# In short: as §1
# [3] = test system: blackgrass (Alopecurus myosuroides); assay: Test B postemergence; details: 13 to 15 days
# In short: as §1
# [4] = test system: cocklebur (Xanthium strumarium); assay: Test B postemergence; details: 13 to 15 days
# In short: as §1
# corn (Zea mays) [5] = assay: Test B postemergence; details: 13 to 15 days
# In short: as §1
# [6] = test system: crabgrass (Digitaria sanguinalis); assay: Test B postemergence; details: 13 to 15 days
# In short: as §1
# [7] = test system: giant foxtail (Setaria faberii); assay: Test B postemergence; details: 13 to 15 days
# In short: as §1
# [8] = test system: lambsquarters (Chenopodium album); assay: Test B postemergence; details: 13 to 15 days
# In short: as §1
# [9] = test system: morning glory (Ipomoea hederacea); assay: Test B postemergence; details: 13 to 15 days
# In short: as §1
# [10] = test system: pigweed (Amaranthus retroflexus); assay: Test B postemergence; details: 13 to 15 days
# In short: as §1
# [11] = test system: velvetleaf (Abutilon theophrasti); assay: Test B postemergence; details: 13 to 15 days
# In short: as §1
# [12] = test system: wheat (Triticum aestivum); assay: Test B postemergence; details: 13 to 15 days
# In short: as §1
# wild oat (Avena fatua) = assay: Test B postemergence; details: 13 to 15 days
# In short: as §1
# [13] = test system: Surinam grass (Brachiaria decumbens); assay: Test B preemergence
# In short: as §1
# [14] = test system: barnyardgrass (Echinochloa crus-galli); assay: Test B preemergence
# In short: as §1
# [15] = test system: cocklebur (Xanthium strumarium); assay: Test B preemergence
# In short: as §1
# corn (Zea mays) [16] = assay: Test B preemergence
# In short: as §1
# [17] = test system: crabgrass (Digitaria sanguinalis); assay: Test B preemergence
# In short: as §1
# [18] = test system: giant foxtail (Setaria faberii); assay: Test B preemergence
# In short: as §1
# [19] = test system: lambsquarters (Chenopodium album); assay: Test B preemergence
# In short: as §1
# [20] = test system: morning glory (Ipomoea hederacea); assay: Test B preemergence
# In short: as §1
# [21] = test system: pigweed (Amaranthus retroflexus); assay: Test B preemergence
# In short: as §1
# rice (Oryza saliva) [22] = assay: Test B preemergence
# In short: as §1
# [23] = test system: velvetleaf (Abutilon theophrasti); assay: Test B preemergence
# In short: as §1
# [24] = test system: barnyardgrass (Echinochloa crus-galli); assay: Test B flooded paddy test; details: Rate 1000 g/ha, scale of 0 to 100 where 0 is no effect and 100 is complete control, visually evaluated after 13 to 15 days
# In short: (§2)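 Rice, smallflower flatsedge, duck salad and barnyardgrass grown to 2-leaf stage in flooded paddy and treated with test chemicals. Plants kept in greenhouse 13 to 15 days, then visually rated against controls. Scale 0 (no effect) to 100 (complete control).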
# [25] = test system: duck salad (Heteranthera limosa); assay: Test B flooded paddy test; details: Rate 1000 g/ha, scale of 0 to 100 where 0 is no effect and 100 is complete control, visually evaluated after 13 to 15 days
# In short: as §2
# rice (Oryza saliva) [26] = assay: Test B flooded paddy test; details: Rate 1000 g/ha, scale of 0 to 100 where 0 is no effect and 100 is complete control, visually evaluated after 13 to 15 days
# In short: as §2
# [27] = test system: smallflower flatsedge (Cyperus difformis); assay: Test B flooded paddy test; details: Rate 1000 g/ha, scale of 0 to 100 where 0 is no effect and 100 is complete control, visually evaluated after 13 to 15 days
# In short: as §2
# [28] = test system: barnyardgrass (Echinochloa crus-galli); assay: Test C flooded paddy test; details: for Barnyardgrass plant response rating: Flooded Paddy, scale 0 to 100, 0 no effect, 100 complete control; for Plant response rating, Barnyardgrass: flooded paddy test, scale 0 to 100 (0 no effect, 100 complete control)
# In short: (§3)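 2-leaf-stage plants, flooded paddy; treated; greenhouse 12–14 days; compared with controls by eye; rated 0–100 (0 none, 100 complete control).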
# [29] = test system: duck salad (Heteranthera limosa); assay: Test C flooded paddy test; details: for Ducksalad plant response rating: Flooded Paddy, scale 0 to 100, 0 no effect, 100 complete control; for Plant response rating, Ducksalad: flooded paddy test, scale 0 to 100 (0 no effect, 100 complete control)
# In short: as §3
# rice (Oryza saliva) [30] = assay: Test C flooded paddy test; details: for Rice plant response rating: Flooded Paddy, scale 0 to 100, 0 no effect, 100 complete control; for Plant response rating, Rice: flooded paddy test, scale 0 to 100 (0 no effect, 100 complete control)
# In short: as §3
# [31] = test system: smallflower flatsedge (Cyperus difformis); assay: Test C flooded paddy test; details: for Flatsedge plant response rating: Flooded Paddy, scale 0 to 100, 0 no effect, 100 complete control; for Plant response rating, Flatsedge: flooded paddy test, scale 0 to 100 (0 no effect, 100 complete control)
# In short: as §3
# [32] = Rate 125 g/ha, scale 0 (no effect) to 100 (complete control)
# [33] = Rate 500 g/ha, scale 0 to 100, 0 is no effect, 100 is complete control
# [34] = Preemergence, Rate 500 g/ha, scale 0 to 100, 0 no effect, 100 complete control
# [35] = preemergence, Rate 125 g/ha, scale of 0 to 100 where 0 is no effect and 100 is complete control, 13 to 15 days
compound,measurement,setting,value
CC(C)Oc1ccn(C2CCN(c3cccc(C(F)(F)F)c3)C2=O)n1 (centres unmarked) [Compound 59],"Plant response rating, Surinam grass",[1]; [32],0
same,"Plant response rating, Surinam grass",[1]; [33],0
same,"Plant response rating, Barnyardgrass",[2]; [32],0
same,"Plant response rating, Barnyardgrass",[2]; [33],0
same,"Plant response rating, Blackgrass",[3]; [32],0
same,"Plant response rating, Blackgrass",[3]; [33],0
same,"Plant response rating, Cocklebur",[4]; [32],0
same,"Plant response rating, Cocklebur",[4]; [33],0
same,"Plant response rating, Corn",corn (Zea mays) [5]; [32],0
same,"Plant response rating, Corn",corn (Zea mays) [5]; [33],0
same,"Plant response rating, Crabgrass",[6]; [32],0
same,"Plant response rating, Crabgrass",[6]; [33],0
same,"Plant response rating, Foxtail, Giant",[7]; [32],0
same,"Plant response rating, Foxtail, Giant",[7]; [33],0
same,"Plant response rating, Lambsquarters",[8]; [32],0
same,"Plant response rating, Lambsquarters",[8]; [33],0
same,"Plant response rating, Morningglory",[9]; [32],0
same,"Plant response rating, Morningglory",[9]; [33],0
same,"Plant response rating, Pigweed",[10]; [32],0
same,"Plant response rating, Pigweed",[10]; [33],0
same,"Plant response rating, Velvetleaf",[11]; [32],0
same,"Plant response rating, Velvetleaf",[11]; [33],0
same,"Plant response rating, Wheat",[12]; [32],0
same,"Plant response rating, Wheat",[12]; [33],0
same,"Plant response rating, Wild Oat",wild oat (Avena fatua); [32],0
same,"Plant response rating, Wild Oat",wild oat (Avena fatua); [33],0
same,"Plant response rating, Surinam grass",[13]; [34],80
same,"Plant response rating, Surinam grass",[13]; [35],60
same,"Plant response rating, Barnyardgrass",[14]; [34],90
same,"Plant response rating, Barnyardgrass",[14]; [35],0
same,"Plant response rating, Cocklebur",[15]; [34],0
same,"Plant response rating, Cocklebur",[15]; [35],0
same,"Plant response rating, Corn",corn (Zea mays) [16]; [34],0
same,"Plant response rating, Corn",corn (Zea mays) [16]; [35],0
same,"Plant response rating, Crabgrass",[17]; [34],90
same,"Plant response rating, Crabgrass",[17]; [35],20
same,"Plant response rating, Foxtail, Giant",[18]; [34],70
same,"Plant response rating, Foxtail, Giant",[18]; [35],0
same,"Plant response rating, Lambsquarters",[19]; [34],100
same,"Plant response rating, Lambsquarters",[19]; [35],0
same,"Plant response rating, Morningglory",[20]; [34],0
same,"Plant response rating, Morningglory",[20]; [35],0
same,"Plant response rating, Pigweed",[21]; [34],0
same,"Plant response rating, Pigweed",[21]; [35],0
same,"Plant response rating, Rice",rice (Oryza saliva) [22]; [34],50
same,"Plant response rating, Rice",rice (Oryza saliva) [22]; [35],0
same,"Plant response rating, Velvetleaf",[23]; [34],0
same,"Plant response rating, Velvetleaf",[23]; [35],0
same,"Plant response rating, Barnyardgrass",[24],100
same,"Plant response rating, Ducksalad",[25],70
same,"Plant response rating, Rice",rice (Oryza saliva) [26],20
same,"Plant response rating, Flatsedge",[27],90
same,Barnyardgrass plant response rating,[28]; Rate 250 g/ha,0
same,Barnyardgrass plant response rating,[28]; Rate 500 g/ha,30
same,"Plant response rating, Barnyardgrass",[28]; Rate 62 g/ha,0
same,"Plant response rating, Barnyardgrass",[28]; Rate 125 g/ha,0
same,Ducksalad plant response rating,[29]; Rate 250 g/ha,0
same,Ducksalad plant response rating,[29]; Rate 500 g/ha,0
same,"Plant response rating, Ducksalad",[29]; Rate 62 g/ha,0
same,"Plant response rating, Ducksalad",[29]; Rate 125 g/ha,0
same,Rice plant response rating,rice (Oryza saliva) [30]; Rate 250 g/ha,0
same,Rice plant response rating,rice (Oryza saliva) [30]; Rate 500 g/ha,20
same,"Plant response rating, Rice",rice (Oryza saliva) [30]; Rate 62 g/ha,0
same,"Plant response rating, Rice",rice (Oryza saliva) [30]; Rate 125 g/ha,0
same,Flatsedge plant response rating,[31]; Rate 250 g/ha,0
same,Flatsedge plant response rating,[31]; Rate 500 g/ha,30
same,"Plant response rating, Flatsedge",[31]; Rate 62 g/ha,0
same,"Plant response rating, Flatsedge",[31]; Rate 125 g/ha,0
CC(C)(C)c1ccn(C2CCN(c3cc(Cl)cc(Cl)c3)C2=O)n1 (centres unmarked) [Compound 55],"Plant response rating, Surinam grass",[1]; [32],0
same,"Plant response rating, Surinam grass",[1]; [33],0
same,"Plant response rating, Barnyardgrass",[2]; [32],0
same,"Plant response rating, Barnyardgrass",[2]; [33],0
same,"Plant response rating, Blackgrass",[3]; [32],0
same,"Plant response rating, Blackgrass",[3]; [33],0
same,"Plant response rating, Cocklebur",[4]; [32],10
same,"Plant response rating, Cocklebur",[4]; [33],10
same,"Plant response rating, Corn",corn (Zea mays) [5]; [32],0
same,"Plant response rating, Corn",corn (Zea mays) [5]; [33],0
same,"Plant response rating, Crabgrass",[6]; [32],0
same,"Plant response rating, Crabgrass",[6]; [33],0
same,"Plant response rating, Foxtail, Giant",[7]; [32],0
same,"Plant response rating, Foxtail, Giant",[7]; [33],0
same,"Plant response rating, Lambsquarters",[8]; [32],0
same,"Plant response rating, Lambsquarters",[8]; [33],0
same,"Plant response rating, Morningglory",[9]; [32],0
same,"Plant response rating, Morningglory",[9]; [33],30
same,"Plant response rating, Pigweed",[10]; [32],0
same,"Plant response rating, Pigweed",[10]; [33],0
same,"Plant response rating, Velvetleaf",[11]; [32],0
same,"Plant response rating, Velvetleaf",[11]; [33],0
same,"Plant response rating, Wheat",[12]; [32],0
same,"Plant response rating, Wheat",[12]; [33],0
same,"Plant response rating, Wild Oat",wild oat (Avena fatua); [32],0
same,"Plant response rating, Wild Oat",wild oat (Avena fatua); [33],0
same,"Plant response rating, Surinam grass",[13]; [34],0
same,"Plant response rating, Surinam grass",[13]; [35],0
same,"Plant response rating, Barnyardgrass",[14]; [34],0
same,"Plant response rating, Barnyardgrass",[14]; [35],0
same,"Plant response rating, Cocklebur",[15]; [35],0
same,"Plant response rating, Corn",corn (Zea mays) [16]; [34],0
same,"Plant response rating, Corn",corn (Zea mays) [16]; [35],0
same,"Plant response rating, Crabgrass",[17]; [34],0
same,"Plant response rating, Crabgrass",[17]; [35],0
same,"Plant response rating, Foxtail, Giant",[18]; [34],0
same,"Plant response rating, Foxtail, Giant",[18]; [35],0
same,"Plant response rating, Lambsquarters",[19]; [34],0
same,"Plant response rating, Lambsquarters",[19]; [35],0
same,"Plant response rating, Morningglory",[20]; [34],0
same,"Plant response rating, Morningglory",[20]; [35],0
same,"Plant response rating, Pigweed",[21]; [34],0
same,"Plant response rating, Rice",rice (Oryza saliva) [22]; [34],0
same,"Plant response rating, Rice",rice (Oryza saliva) [22]; [35],0
same,"Plant response rating, Velvetleaf",[23]; [34],0
same,"Plant response rating, Velvetleaf",[23]; [35],0
same,"Plant response rating, Barnyardgrass",[24],100
same,"Plant response rating, Ducksalad",[25],80
same,"Plant response rating, Rice",rice (Oryza saliva) [26],0
same,"Plant response rating, Flatsedge",[27],100
same,Barnyardgrass plant response rating,[28]; Rate 250 g/ha,100
same,Barnyardgrass plant response rating,[28]; Rate 500 g/ha,100
same,"Plant response rating, Barnyardgrass",[28]; Rate 62 g/ha,0
same,"Plant response rating, Barnyardgrass",[28]; Rate 125 g/ha,50
same,Ducksalad plant response rating,[29]; Rate 250 g/ha,50
same,Ducksalad plant response rating,[29]; Rate 500 g/ha,50
same,"Plant response rating, Ducksalad",[29]; Rate 62 g/ha,0
same,"Plant response rating, Ducksalad",[29]; Rate 125 g/ha,40
same,Rice plant response rating,rice (Oryza saliva) [30]; Rate 250 g/ha,0
same,Rice plant response rating,rice (Oryza saliva) [30]; Rate 500 g/ha,0
same,"Plant response rating, Rice",rice (Oryza saliva) [30]; Rate 62 g/ha,0
same,"Plant response rating, Rice",rice (Oryza saliva) [30]; Rate 125 g/ha,0
same,Flatsedge plant response rating,[31]; Rate 250 g/ha,90
same,Flatsedge plant response rating,[31]; Rate 500 g/ha,100
same,"Plant response rating, Flatsedge",[31]; Rate 62 g/ha,40
same,"Plant response rating, Flatsedge",[31]; Rate 125 g/ha,90

# Reference: patent publication US7138361B2, “Herbicidal heterocycles” (E. I. du Pont de Nemours and Company, priority 2000, dated 2006)
